Test results from PubChem BioAssay AID1963873 (Molecular Pharmacology Branch, DTP, NCI, 2024).

Tested on: 276233-004-R-J1-PDC KRAS spheroids with HUVEC/MSC, viability
Assay: Anticancer human tumor 276233-004-R-J1-PDC patient-derived colon adenocarcinoma cell line growth inhibition [KRAS2]
Details: for viability, T/C: stronger effect = lower value
Method in brief: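 KRAS-mutant tumor cells were grown as spheroids with HUVEC endothelial cells and human MSCs as stroma. Targeted agents were tested alone and with KRAS pathway inhibitors. Doses started at or near clinical Cmax, or 10 microM, descending half-log.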

[1] = curve of first compound, second compound 0.1 µM
[2] = curve of first compound, second compound 0.316 µM
[3] = curve of first compound, second compound 1 µM
[4] = curve of first compound, second compound 3.16 µM
[5] = second compound 0.1 µM, first compound 0.0316 µM
[6] = second compound 0.1 µM, first compound 0.1 µM
[7] = second compound 0.316 µM, first compound 0.0316 µM
[8] = second compound 0.316 µM, first compound 0.1 µM
[9] = second compound 1 µM, first compound 0.0316 µM
[10] = second compound 1 µM, first compound 0.1 µM
[11] = second compound 3.16 µM, first compound 0.0316 µM
[12] = second compound 3.16 µM, first compound 0.1 µM
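Further: cells exposed to agents for seven days before viability read.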
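Wherever viability, T/C is given: 100% = DMSO vehicle control wells and lower values mean fewer viable cells.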

COc1cc2nccc(Oc3ccc(NC(=O)C4(C(=O)Nc5ccc(F)cc5)CC4)cc3)c2cc1OC + CC1OCC2(CCN(c3cnc(Sc4ccnc(N)c4Cl)c(N)n3)CC2)C1N showed an IC50 [1] greater than 10 µM, an IC50 [2] greater than 10 µM and an IC50 [3] greater than 10 µM. For the same compound, the IC50 [4] was greater than 10 µM, the IC50 (curve of first compound, second compound 10 µM) was 3.58 µM and the viability, T/C [5] was 78.9%. The viability, T/C [6] was 77.1%, the viability, T/C (second compound 0.1 µM, first compound 0.316 µM) was 85.4% and the viability, T/C (second compound 0.1 µM, first compound 1 µM) was 75.1%. The viability, T/C (second compound 0.1 µM, first compound 3.16 µM) was 80%, the viability, T/C (second compound 0.1 µM, first compound 10 µM) was 77.6% and the viability, T/C [7] was 73.5%. It also gave a viability, T/C [8] of 64.7%, a viability, T/C (second compound 0.316 µM, first compound 0.316 µM) of 69.5% and a viability, T/C (second compound 0.316 µM, first compound 1 µM) of 72.7%. For the same compound, the viability, T/C (second compound 0.316 µM, first compound 3.16 µM) was 81.9%, the viability, T/C (second compound 0.316 µM, first compound 10 µM) was 59.6% and the viability, T/C [9] was 65%. For the same compound, the viability, T/C [10] was 67.4%, the viability, T/C (second compound 1 µM, first compound 0.316 µM) was 60.7% and the viability, T/C (second compound 1 µM, first compound 1 µM) was 75.7%. For the same compound, the viability, T/C (second compound 1 µM, first compound 3.16 µM) was 70.9%, the viability, T/C (second compound 1 µM, first compound 10 µM) was 52.7% and the viability, T/C [11] was 55.5%. For the same compound, the viability, T/C [12] was 67.9%, the viability, T/C (second compound 3.16 µM, first compound 0.316 µM) was 55.1% and the viability, T/C (second compound 3.16 µM, first compound 1 µM) was 61.7%. The viability, T/C (second compound 3.16 µM, first compound 3.16 µM) was 72.2%, the viability, T/C (second compound 3.16 µM, first compound 10 µM) was 44% and the viability, T/C (second compound 10 µM, first compound 0.0316 µM) was 71.8%. For the same compound, the viability, T/C (second compound 10 µM, first compound 0.1 µM) was 59.7%, the viability, T/C (second compound 10 µM, first compound 0.316 µM) was 56.7% and the viability, T/C (second compound 10 µM, first compound 1 µM) was 53%. The viability, T/C (second compound 10 µM, first compound 3.16 µM) was 58.2% and the viability, T/C (second compound 10 µM, first compound 10 µM) was 42.6%.

Cn1ncnc1[C@H]1c2n[nH]c(=O)c3cc(F)cc(c23)N[C@@H]1c1ccc(F)cc1 + C=CC(=O)N1CCN(c2nc(OCC3CCCN3C)nc3c2CCN(c2cccc4cccc(C)c24)C3)CC1CC#N was tested, and the IC50 (curve of first compound, second compound 0.0316 µM) was greater than 0.1 µM, the IC50 [1] was greater than 0.1 µM and the IC50 [2] was greater than 0.1 µM. For the same compound, the IC50 [3] was greater than 0.1 µM, the IC50 [4] was greater than 0.1 µM and the viability, T/C (second compound 0.0316 µM, first compound 0.000316 µM) was 111%. The viability, T/C (second compound 0.0316 µM, first compound 0.001 µM) was 107%, the viability, T/C (second compound 0.0316 µM, first compound 0.00316 µM) was 88% and the viability, T/C (second compound 0.0316 µM, first compound 0.01 µM) was 119%. The viability, T/C (second compound 0.0316 µM, first compound 0.0316 µM) was 97.7%, the viability, T/C (second compound 0.0316 µM, first compound 0.1 µM) was 92.8% and the viability, T/C (second compound 0.1 µM, first compound 0.000316 µM) was 107%. It also gave a viability, T/C (second compound 0.1 µM, first compound 0.001 µM) of 113%, a viability, T/C (second compound 0.1 µM, first compound 0.00316 µM) of 103% and a viability, T/C (second compound 0.1 µM, first compound 0.01 µM) of 98%. The viability, T/C [5] was 77.3%, the viability, T/C [6] was 86.3% and the viability, T/C (second compound 0.316 µM, first compound 0.000316 µM) was 100%. It also gave a viability, T/C (second compound 0.316 µM, first compound 0.001 µM) of 107%, a viability, T/C (second compound 0.316 µM, first compound 0.00316 µM) of 113% and a viability, T/C (second compound 0.316 µM, first compound 0.01 µM) of 115%. It also gave a viability, T/C [7] of 85.5%, a viability, T/C [8] of 91.6% and a viability, T/C (second compound 1 µM, first compound 0.000316 µM) of 99%. For the same compound, the viability, T/C (second compound 1 µM, first compound 0.001 µM) was 118%, the viability, T/C (second compound 1 µM, first compound 0.00316 µM) was 105% and the viability, T/C (second compound 1 µM, first compound 0.01 µM) was 116%. For the same compound, the viability, T/C [9] was 88.9%, the viability, T/C [10] was 110% and the viability, T/C (second compound 3.16 µM, first compound 0.000316 µM) was 74.9%. The viability, T/C (second compound 3.16 µM, first compound 0.001 µM) was 77.6%, the viability, T/C (second compound 3.16 µM, first compound 0.00316 µM) was 57.1% and the viability, T/C (second compound 3.16 µM, first compound 0.01 µM) was 52.6%. It also gave a viability, T/C [11] of 65% and a viability, T/C [12] of 72%.

For CC1(C)CCC(CN2CCN(c3ccc(C(=O)NS(=O)(=O)c4ccc(NCC5CCOCC5)c([N+](=O)[O-])c4)c(Oc4cnc5[nH]ccc5c4)c3)CC2)=C(c2ccc(Cl)cc2)C1, the viability, T/C (compound 0.0316 µM) was 93.5% [middle of 5 runs], the viability, T/C (compound 0.1 µM) was 88.8% [middle of 5 runs] and the viability, T/C (compound 0.316 µM) was 102% [middle of 5 runs]. The viability, T/C (compound 1 µM) was 93.4% [middle of 5 runs] and the IC50 (curve of compound) was greater than 10 µM.
